Source: the OligoGym collection
Where “and” joins values, the source holds several entries; their conditions need not be identical. Equal values may be shown once. After the bases stand the sugars from the 5' end (letter, count) and the backbone: PS all phosphorothioate, else s phosphorothioate and o phosphodiester by linkage. Methylation of C is not given here. e = 2'-O-(2-methoxyethyl) (MOE); k = constrained ethyl (cEt); d = 2'-deoxy (DNA)

Biological target: SOD1
Details: ASO

For “AGTGATCATAAATCAGT (sugars e2 k2 d8 k2 e3, PS)”, which target mRNA inhibition (HepG2, 5 µM) is on record?
Its target mRNA inhibition is 23%.

With “AGTGCCATACAGGGTTT (sugars e2 k2 d8 k2 e3, PS)” as the sequence, how does the target mRNA inhibition (HepG2, 5 µM) read?
Its target mRNA inhibition is 20%.

How did the target mRNA inhibition (HepG2, 5 µM) turn out when “AGTGCCATACAGGGTTT (sugars e2 k2 d9 k2 e2, PS)” was run?
The target mRNA inhibition was 27%.

“AGTGCCATACAGGGTTT (sugars e3 k2 d7 k2 e3, PS)” was tested. Which target mRNA inhibition (HepG2, 3 µM) did it give?
Its target mRNA inhibition is 9%.

Which target mRNA inhibition (HepG2, 0.1875 µM) does the source give for “AGTGTTTAATGTTTATC (sugars e2 k2 d8 k2 e3, PS)” here?
Its target mRNA inhibition is 46%.

And the target mRNA inhibition (HepG2, 0.75 µM)?
The target mRNA inhibition was 74%.

What about the target mRNA inhibition (HepG2, 3 µM) of the same sequence?
Its target mRNA inhibition is 84%.

And the target mRNA inhibition (HepG2, 5 µM)?
Its target mRNA inhibition is 88%.

What about the target mRNA inhibition (HepG2, 12 µM) of the same sequence?
The target mRNA inhibition was 81%.

With “AGTTTAATACCCATCTG (sugars e2 k2 d9 k2 e2, PS)” as the sequence, how does the target mRNA inhibition (HepG2, 5 µM) read?
Its target mRNA inhibition is 43%.

Which target mRNA inhibition (HepG2, 5 µM) does the source give for “AGTTTCTCACTACAGGT (sugars e2 k2 d8 k2 e3, PS)” here?
The target mRNA inhibition was 33%.

With “ATAACTCGCTAGGCCACGCC (sugars e5 d10 e5, PS)” as the sequence, how does the target mRNA inhibition (HepG2, 4 µM) read?
Its target mRNA inhibition is 12%.

For “ATAAGTGCCATACAGGG (sugars e2 k2 d8 k2 e3, PS)”, which target mRNA inhibition (HepG2, 5 µM) is on record?
Its target mRNA inhibition is 36%.

Which target mRNA inhibition (HepG2, 5 µM) does the source give for “ATAATAAGTGCCATACA (sugars e2 k2 d8 k2 e3, PS)” here?
The target mRNA inhibition was 27%.

With “ATAATAAGTGCCATACAGGG (sugars e5 d10 e5, PS)” as the sequence, how does the target mRNA inhibition (HepG2, 5 µM) read?
Its target mRNA inhibition is 18%.

With “ATACAGGGTTTTTATTC (sugars e3 k2 d7 k2 e3, PS)” as the sequence, how does the target mRNA inhibition (HepG2, 3 µM) read?
Its target mRNA inhibition is 3%.

What does the source list for “ATACATTTCTACAGCTA (sugars e3 k2 d7 k2 e3, PS)”?
target mRNA inhibition (HepG2, 0.1875 µM): 34%; target mRNA inhibition (HepG2, 0.75 µM): 56%; target mRNA inhibition (HepG2, 3 µM): 57% and 82%; target mRNA inhibition (HepG2, 12 µM): 93%

With “ATCAGTTTCTCACTACA (sugars e2 k2 d8 k2 e3, PS)” as the sequence, how does the target mRNA inhibition (HepG2, 5 µM) read?
The target mRNA inhibition was 31%.

“ATCAGTTTCTCACTACAGGT (sugars e5 d10 e5, PS)” was tested. Which target mRNA inhibition (HepG2, 5 µM) did it give?
Its target mRNA inhibition is 22%.

For “ATCCATGCAGGCCTTCA (sugars e3 k2 d7 k2 e3, PS)”, which target mRNA inhibition (HepG2, 3 µM) is on record?
The target mRNA inhibition was 27%.

How did the target mRNA inhibition (HepG2, 5 µM) turn out when “ATCTGTGATTTAAGTCT (sugars e2 k2 d9 k2 e2, PS)” was run?
The target mRNA inhibition was 37%.

With “ATGCAGGCCTTCAGTCA (sugars e3 k2 d7 k2 e3, PS)” as the sequence, how does the target mRNA inhibition (HepG2, 3 µM) read?
Its target mRNA inhibition is 37%.

How did the target mRNA inhibition (HepG2, 3 µM) turn out when “ATGGAATCCATGCAGGC (sugars e3 k2 d7 k2 e3, PS)” was run?
Its target mRNA inhibition is 9%.

For “ATGTTTATCAGGATAC (sugars ekddddddddekekee, linkages s1 o1 s8 o3 s2)”, which target mRNA inhibition (A431, 0.12 µM) is on record?
The target mRNA inhibition was 0%.

What about the target mRNA inhibition (A431, 0.6 µM) of the same sequence?
Its target mRNA inhibition is 7%.

What about the target mRNA inhibition (A431, 3 µM) of the same sequence?
Its target mRNA inhibition is 26%.

What about the target mRNA inhibition (A431, 15 µM) of the same sequence?
Its target mRNA inhibition is 59%.

And the target mRNA inhibition (HepG2, 0.222 µM)?
Its target mRNA inhibition is 64%.

What about the target mRNA inhibition (HepG2, 0.667 µM) of the same sequence?
Its target mRNA inhibition is 81%.

And the target mRNA inhibition (HepG2, 2 µM)?
Its target mRNA inhibition is 90%.

What about the target mRNA inhibition (HepG2, 6 µM) of the same sequence?
The target mRNA inhibition was 94%.

With “ATGTTTATCAGGATACA (sugars e2 k2 d9 k2 e2, PS)” as the sequence, how does the target mRNA inhibition (HepG2, 0.1875 µM) read?
Its target mRNA inhibition is 27%.

What about the target mRNA inhibition (HepG2, 0.75 µM) of the same sequence?
The target mRNA inhibition was 65%.

And the target mRNA inhibition (HepG2, 3 µM)?
The target mRNA inhibition was 88%.

What about the target mRNA inhibition (HepG2, 4 µM) of the same sequence?
The target mRNA inhibition was 81%.

What about the target mRNA inhibition (HepG2, 12 µM) of the same sequence?
The target mRNA inhibition was 96%.

How did the target mRNA inhibition (A431, 0.062 µM) turn out when “ATGTTTATCAGGATACA (sugars e4 d8 e5, linkages s1 o2 s9 o2 s2)” was run?
The target mRNA inhibition was 0%.

What about the target mRNA inhibition (A431, 0.185 µM) of the same sequence?
Its target mRNA inhibition is 4%.

What about the target mRNA inhibition (A431, 0.556 µM) of the same sequence?
The target mRNA inhibition was 10%.

And the target mRNA inhibition (A431, 1.667 µM)?
Its target mRNA inhibition is 33%.

What about the target mRNA inhibition (A431, 5 µM) of the same sequence?
Its target mRNA inhibition is 56%.

And the target mRNA inhibition (A431, 15 µM)?
The target mRNA inhibition was 50%.

What about the target mRNA inhibition (SH-SY5Y, 0.062 µM) of the same sequence?
The target mRNA inhibition was 0%.

What about the target mRNA inhibition (SH-SY5Y, 0.185 µM) of the same sequence?
The target mRNA inhibition was 4%.

And the target mRNA inhibition (SH-SY5Y, 0.556 µM)?
The target mRNA inhibition was 32%.

And the target mRNA inhibition (SH-SY5Y, 1.667 µM)?
Its target mRNA inhibition is 37%.

What about the target mRNA inhibition (SH-SY5Y, 5 µM) of the same sequence?
The target mRNA inhibition was 61%.

What about the target mRNA inhibition (SH-SY5Y, 15 µM) of the same sequence?
Its target mRNA inhibition is 83%.

“ATGTTTATTGGGCGATC (sugars e2 k2 d8 k2 e3, PS)” was tested. Which target mRNA inhibition (HepG2, 0.1875 µM) did it give?
Its target mRNA inhibition is 15%.

And the target mRNA inhibition (HepG2, 0.75 µM)?
Its target mRNA inhibition is 36%.

What about the target mRNA inhibition (HepG2, 3 µM) of the same sequence?
Its target mRNA inhibition is 79%.

What about the target mRNA inhibition (HepG2, 4 µM) of the same sequence?
The target mRNA inhibition was 76%.

What about the target mRNA inhibition (HepG2, 12 µM) of the same sequence?
The target mRNA inhibition was 95%.

How did the target mRNA inhibition (HepG2, 3 µM) turn out when “ATTACTTTCCTTCTGCT (sugars e3 k2 d7 k2 e3, PS)” was run?
The target mRNA inhibition was 15%.

“ATTTAAGTCTGGCAAAATAC (sugars e5 d10 e5, PS)” was tested. Which target mRNA inhibition (HepG2, 5 µM) did it give?
Its target mRNA inhibition is 16%.

Which target mRNA inhibition (HepG2, 5 µM) does the source give for “CAAAATACAGGTCATTG (sugars e2 k2 d8 k2 e3, PS)” here?
The target mRNA inhibition was 44%.

With “CAAAATACAGGTCATTG (sugars e2 k2 d9 k2 e2, PS)” as the sequence, how does the target mRNA inhibition (HepG2, 5 µM) read?
The target mRNA inhibition was 56%.

“CAAAGAAATTCTGACAAGTT (sugars e5 d10 e5, PS)” was tested. Which target mRNA inhibition (HepG2, 5 µM) did it give?
Its target mRNA inhibition is 7%.

Which target mRNA inhibition (HepG2, 0.1875 µM) does the source give for “CAAGCCAAACGACTTCCAGC (sugars e5 d10 e5, PS)” here?
Its target mRNA inhibition is 9%.

What about the target mRNA inhibition (HepG2, 0.75 µM) of the same sequence?
The target mRNA inhibition was 27%.

And the target mRNA inhibition (HepG2, 3 µM)?
Its target mRNA inhibition is 59%.

What about the target mRNA inhibition (HepG2, 5 µM) of the same sequence?
The target mRNA inhibition was 54%.

And the target mRNA inhibition (HepG2, 12 µM)?
Its target mRNA inhibition is 89%.

For “CAAGTTTAATACCCATC (sugars e3 k2 d7 k2 e3, PS)”, which target mRNA inhibition (HepG2, 3 µM) is on record?
Its target mRNA inhibition is 37%.

With “CAATTACACCACAAGCC (sugars e2 k2 d9 k2 e2, PS)” as the sequence, how does the target mRNA inhibition (HepG2, 4 µM) read?
Its target mRNA inhibition is 61%.

“CACCACAAGCCAAACGA (sugars e2 k2 d8 k2 e3, PS)” was tested. Which target mRNA inhibition (HepG2, 4 µM) did it give?
The target mRNA inhibition was 48%.

Which target mRNA inhibition (HepG2, 0.1875 µM) does the source give for “CACCTTCACTGGTCCAT (sugars e3 k2 d7 k2 e3, PS)” here?
The target mRNA inhibition was 19%.

What about the target mRNA inhibition (HepG2, 0.75 µM) of the same sequence?
Its target mRNA inhibition is 39%.

And the target mRNA inhibition (HepG2, 3 µM)?
Its target mRNA inhibition is 53% and 69%.

And the target mRNA inhibition (HepG2, 12 µM)?
The target mRNA inhibition was 88%.

“CACGCCGAGGTCCTGGTTCC (sugars e5 d10 e5, PS)” was tested. Which target mRNA inhibition (HepG2, 4 µM) did it give?
Its target mRNA inhibition is 23%.

For “CAGAATCTTCAATAGACACA (sugars e5 d10 e5, PS)”, which target mRNA inhibition (HepG2, 5 µM) is on record?
Its target mRNA inhibition is 17% and 0%.
